Laboratory results as given in ChEMBL document CHEMBL1143950, “Antifungal and cytotoxic activities of some N-substituted aniline derivatives bearing a hetaryl fragment” (Bioorg Med Chem, 2008).
Values after ≈ are worked out from the molar mass of the structure shown.

test system: Candida albicans; test: Antifungal activity against Candida albicans ATCC 10231 by micro-broth dilution method; type: functional

| SMILES | MIC [µg/mL] |
| --- | --- |
| COc1ccc(CNc2cccc([N+](=O)[O-])c2)cc1 | > 250 |
| C=CCC(Nc1ccc(Cl)cc1)c1cccn1C (stereo not given) | > 250 |
| N#CC(Nc1ccc(Cl)cc1)c1ccsc1 (stereo not given) | > 250 |
| Brc1ccc(NCc2ccco2)cc1 | 62.5 (≈ 248 µM) |
| Ic1ccc(NCc2cccnc2)cc1 | > 250 |
| N#CC(Nc1ccccc1)c1ccncc1 (stereo not given) | > 250 |

The remaining lines, values ahead:

| MIC [µg/mL] | SMILES |
| --- | --- |
| > 250 | C=CCC(Nc1ccc(Cl)cc1)c1ccsc1 (stereo not given) |
| 250 (≈ 991 µM) | C=CCC(Nc1cc(C)cc(C)c1)c1ccncc1 (stereo not given) |
| > 250 | C=CCC(Nc1ccc(Br)cc1)c1ccncc1 (stereo not given) |

test system: Candida tropicalis; test: Antifungal activity against Candida tropicalis C131 by micro-broth dilution method; type: functional

| SMILES | MIC [µg/mL] |
| --- | --- |
| COc1ccc(CNc2cccc([N+](=O)[O-])c2)cc1 | > 250 |
| C=CCC(Nc1ccc(Cl)cc1)c1cccn1C (stereo not given) | > 250 |
| N#CC(Nc1ccc(Cl)cc1)c1ccsc1 (stereo not given) | > 250 |
| Brc1ccc(NCc2ccco2)cc1 | 75 (≈ 297 µM) |
| Ic1ccc(NCc2cccnc2)cc1 | 200 (≈ 645 µM) |
| N#CC(Nc1ccccc1)c1ccncc1 (stereo not given) | > 250 |

The next lines start with the values.

| MIC [µg/mL] | SMILES |
| --- | --- |
| > 250 | C=CCC(Nc1ccc(Cl)cc1)c1ccsc1 (stereo not given) |
| 250 (≈ 991 µM) | C=CCC(Nc1cc(C)cc(C)c1)c1ccncc1 (stereo not given) |
| > 250 | C=CCC(Nc1ccc(Br)cc1)c1ccncc1 (stereo not given) |

test system: Saccharomyces cerevisiae; test: Antifungal activity against Saccharomyces cerevisiae ATCC 9763 by microbroth dilution method; type: functional

| SMILES | MIC [µg/mL] |
| --- | --- |
| COc1ccc(CNc2cccc([N+](=O)[O-])c2)cc1 | > 250 |
| C=CCC(Nc1ccc(Cl)cc1)c1cccn1C (stereo not given) | > 250 |
| N#CC(Nc1ccc(Cl)cc1)c1ccsc1 (stereo not given) | > 250 |
| Brc1ccc(NCc2ccco2)cc1 | 50 (≈ 198 µM) |
| Ic1ccc(NCc2cccnc2)cc1 | 200 (≈ 645 µM) |
| N#CC(Nc1ccccc1)c1ccncc1 (stereo not given) | > 250 |

Results, then the compound that gave them:

| MIC [µg/mL] | SMILES |
| --- | --- |
| > 250 | C=CCC(Nc1ccc(Cl)cc1)c1ccsc1 (stereo not given) |
| 250 (≈ 991 µM) | C=CCC(Nc1cc(C)cc(C)c1)c1ccncc1 (stereo not given) |
| > 250 | C=CCC(Nc1ccc(Br)cc1)c1ccncc1 (stereo not given) |

test system: Cryptococcus neoformans; test: Antifungal activity against Cryptococcus neoformans ATCC 32264 by microbroth dilution method; type: functional

| SMILES | MIC [µg/mL] |
| --- | --- |
| COc1ccc(CNc2cccc([N+](=O)[O-])c2)cc1 | > 250 |
| C=CCC(Nc1ccc(Cl)cc1)c1cccn1C (stereo not given) | > 250 |
| N#CC(Nc1ccc(Cl)cc1)c1ccsc1 (stereo not given) | > 250 |
| Brc1ccc(NCc2ccco2)cc1 | 50 (≈ 198 µM) |
| Ic1ccc(NCc2cccnc2)cc1 | 50 (≈ 161 µM) |
| N#CC(Nc1ccccc1)c1ccncc1 (stereo not given) | 250 (≈ 1190 µM) |

Results, then the compound that gave them:

| MIC [µg/mL] | SMILES |
| --- | --- |
| 250 (≈ 948 µM) | C=CCC(Nc1ccc(Cl)cc1)c1ccsc1 (stereo not given) |
| > 250 | C=CCC(Nc1cc(C)cc(C)c1)c1ccncc1 (stereo not given) |
| > 250 | C=CCC(Nc1ccc(Br)cc1)c1ccncc1 (stereo not given) |

test system: Aspergillus fumigatus; test: Antifungal activity against Aspergillus fumigatus ATCC 26934 by micro-broth dilution method; type: functional

| SMILES | MIC [µg/mL] |
| --- | --- |
| COc1ccc(CNc2cccc([N+](=O)[O-])c2)cc1 | > 250 |
| C=CCC(Nc1ccc(Cl)cc1)c1cccn1C (stereo not given) | > 250 |
| N#CC(Nc1ccc(Cl)cc1)c1ccsc1 (stereo not given) | > 250 |
| Brc1ccc(NCc2ccco2)cc1 | 50 (≈ 198 µM) |
| Ic1ccc(NCc2cccnc2)cc1 | 50 (≈ 161 µM) |
| N#CC(Nc1ccccc1)c1ccncc1 (stereo not given) | 250 (≈ 1190 µM) |

Other lines, results leading:

| MIC [µg/mL] | SMILES |
| --- | --- |
| > 250 | C=CCC(Nc1ccc(Cl)cc1)c1ccsc1 (stereo not given) |
| > 250 | C=CCC(Nc1cc(C)cc(C)c1)c1ccncc1 (stereo not given) |
| > 250 | C=CCC(Nc1ccc(Br)cc1)c1ccncc1 (stereo not given) |

test system: Aspergillus flavus; test: Antifungal activity against Aspergillus flavus ATCC 9170 by micro-broth dilution method; type: functional

| SMILES | MIC [µg/mL] |
| --- | --- |
| COc1ccc(CNc2cccc([N+](=O)[O-])c2)cc1 | > 250 |
| C=CCC(Nc1ccc(Cl)cc1)c1cccn1C (stereo not given) | > 250 |
| N#CC(Nc1ccc(Cl)cc1)c1ccsc1 (stereo not given) | > 250 |
| Brc1ccc(NCc2ccco2)cc1 | 50 (≈ 198 µM) |
| Ic1ccc(NCc2cccnc2)cc1 | 50 (≈ 161 µM) |
| N#CC(Nc1ccccc1)c1ccncc1 (stereo not given) | 250 (≈ 1190 µM) |

Results, then the compound that gave them:

| MIC [µg/mL] | SMILES |
| --- | --- |
| > 250 | C=CCC(Nc1ccc(Cl)cc1)c1ccsc1 (stereo not given) |
| > 250 | C=CCC(Nc1cc(C)cc(C)c1)c1ccncc1 (stereo not given) |
| > 250 | C=CCC(Nc1ccc(Br)cc1)c1ccncc1 (stereo not given) |

test system: Trichophyton rubrum; test: Antifungal activity against Trichophyton rubrum C113 by microbroth dilution method; type: functional

| SMILES | MIC [µg/mL] |
| --- | --- |
| COc1ccc(CNc2cccc([N+](=O)[O-])c2)cc1 | > 250 |
| C=CCC(Nc1ccc(Cl)cc1)c1cccn1C (stereo not given) | 250 (≈ 959 µM) |
| N#CC(Nc1ccc(Cl)cc1)c1ccsc1 (stereo not given) | 125 (≈ 503 µM) |
| Brc1ccc(NCc2ccco2)cc1 | 3.12 (≈ 12.4 µM) |
| Ic1ccc(NCc2cccnc2)cc1 | 25 (≈ 80.6 µM) |
| N#CC(Nc1ccccc1)c1ccncc1 (stereo not given) | 125 (≈ 597 µM) |

Further lines, results first:

| MIC [µg/mL] | SMILES |
| --- | --- |
| > 250 | C=CCC(Nc1ccc(Cl)cc1)c1ccsc1 (stereo not given) |
| 250 (≈ 991 µM) | C=CCC(Nc1cc(C)cc(C)c1)c1ccncc1 (stereo not given) |
| 16 (≈ 52.8 µM) | C=CCC(Nc1ccc(Br)cc1)c1ccncc1 (stereo not given) |

test system: Aspergillus niger; test: Antifungal activity against Aspergillus niger ATCC 9029 by micro-broth dilution method; type: functional

| SMILES | MIC [µg/mL] |
| --- | --- |
| COc1ccc(CNc2cccc([N+](=O)[O-])c2)cc1 | > 250 |
| C=CCC(Nc1ccc(Cl)cc1)c1cccn1C (stereo not given) | > 250 |
| N#CC(Nc1ccc(Cl)cc1)c1ccsc1 (stereo not given) | > 250 |
| Brc1ccc(NCc2ccco2)cc1 | 62.5 (≈ 248 µM) |
| Ic1ccc(NCc2cccnc2)cc1 | 100 (≈ 322 µM) |
| N#CC(Nc1ccccc1)c1ccncc1 (stereo not given) | 250 (≈ 1190 µM) |

Next, values leading:

| MIC [µg/mL] | SMILES |
| --- | --- |
| > 250 | C=CCC(Nc1ccc(Cl)cc1)c1ccsc1 (stereo not given) |
| > 250 | C=CCC(Nc1cc(C)cc(C)c1)c1ccncc1 (stereo not given) |
| > 250 | C=CCC(Nc1ccc(Br)cc1)c1ccncc1 (stereo not given) |

test system: Nannizzia gypsea; test: Antifungal activity against Microsporum gypseum C115 by microbroth dilution method; type: functional

| SMILES | MIC [µg/mL] |
| --- | --- |
| COc1ccc(CNc2cccc([N+](=O)[O-])c2)cc1 | > 250 |
| C=CCC(Nc1ccc(Cl)cc1)c1cccn1C (stereo not given) | > 250 |
| N#CC(Nc1ccc(Cl)cc1)c1ccsc1 (stereo not given) | 250 (≈ 1010 µM) |
| Brc1ccc(NCc2ccco2)cc1 | 6.25 (≈ 24.8 µM) |
| Ic1ccc(NCc2cccnc2)cc1 | 50 (≈ 161 µM) |
| N#CC(Nc1ccccc1)c1ccncc1 (stereo not given) | 250 (≈ 1190 µM) |

Now from value to compound:

| MIC [µg/mL] | SMILES |
| --- | --- |
| > 250 | C=CCC(Nc1ccc(Cl)cc1)c1ccsc1 (stereo not given) |
| 125 (≈ 495 µM) | C=CCC(Nc1cc(C)cc(C)c1)c1ccncc1 (stereo not given) |
| 16 (≈ 52.8 µM) | C=CCC(Nc1ccc(Br)cc1)c1ccncc1 (stereo not given) |

test system: Trichophyton mentagrophytes; test: Antifungal activity against Trichophyton mentagrophytes ATCC 9972 by micro-broth dilution method; type: functional

| SMILES | MIC [µg/mL] |
| --- | --- |
| COc1ccc(CNc2cccc([N+](=O)[O-])c2)cc1 | > 250 |
| C=CCC(Nc1ccc(Cl)cc1)c1cccn1C (stereo not given) | 250 (≈ 959 µM) |
| N#CC(Nc1ccc(Cl)cc1)c1ccsc1 (stereo not given) | 125 (≈ 503 µM) |
| Brc1ccc(NCc2ccco2)cc1 | 12.5 (≈ 49.6 µM) |
| Ic1ccc(NCc2cccnc2)cc1 | 25 (≈ 80.6 µM) |
| N#CC(Nc1ccccc1)c1ccncc1 (stereo not given) | 125 (≈ 597 µM) |

Other lines, results leading:

| MIC [µg/mL] | SMILES |
| --- | --- |
| > 250 | C=CCC(Nc1ccc(Cl)cc1)c1ccsc1 (stereo not given) |
| 125 (≈ 495 µM) | C=CCC(Nc1cc(C)cc(C)c1)c1ccncc1 (stereo not given) |
| 31.2 (≈ 103 µM) | C=CCC(Nc1ccc(Br)cc1)c1ccncc1 (stereo not given) |
